Assay [1] deals with T1, Serine/threonine-protein kinase D1 (Homo sapiens) (UniProt Q15139).
T1 sequence (whole entry): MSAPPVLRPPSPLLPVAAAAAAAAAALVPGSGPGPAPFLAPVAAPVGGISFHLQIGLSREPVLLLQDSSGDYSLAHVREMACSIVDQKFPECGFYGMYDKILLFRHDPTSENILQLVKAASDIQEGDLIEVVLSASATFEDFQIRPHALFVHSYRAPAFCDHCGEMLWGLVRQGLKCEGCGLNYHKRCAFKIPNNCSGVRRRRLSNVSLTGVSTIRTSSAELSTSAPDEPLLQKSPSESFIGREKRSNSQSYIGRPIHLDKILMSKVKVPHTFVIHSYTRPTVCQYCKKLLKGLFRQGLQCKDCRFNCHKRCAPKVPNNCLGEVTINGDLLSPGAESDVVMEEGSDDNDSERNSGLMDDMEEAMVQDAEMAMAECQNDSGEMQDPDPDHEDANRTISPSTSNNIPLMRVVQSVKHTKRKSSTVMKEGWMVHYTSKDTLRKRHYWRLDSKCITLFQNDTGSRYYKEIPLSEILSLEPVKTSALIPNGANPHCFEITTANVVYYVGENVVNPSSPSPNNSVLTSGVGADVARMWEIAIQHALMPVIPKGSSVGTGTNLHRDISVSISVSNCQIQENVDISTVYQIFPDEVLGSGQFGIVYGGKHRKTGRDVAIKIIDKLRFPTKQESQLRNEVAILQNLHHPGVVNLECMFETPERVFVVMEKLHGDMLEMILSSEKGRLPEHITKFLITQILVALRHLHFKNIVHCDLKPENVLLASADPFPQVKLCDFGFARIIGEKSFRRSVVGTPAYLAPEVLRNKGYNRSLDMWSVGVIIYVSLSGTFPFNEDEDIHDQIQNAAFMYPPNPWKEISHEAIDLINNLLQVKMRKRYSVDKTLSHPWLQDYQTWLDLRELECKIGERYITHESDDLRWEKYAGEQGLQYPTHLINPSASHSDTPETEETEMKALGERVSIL
Briefly: Residual activity of human PKCmu/PRKD1 using KKLNRTLSVA as substrate at 1 uM in presence of 32P-ATP by Hotspot assay relative to control.

Assay [2] deals with G protein-coupled receptor kinase 4 (Homo sapiens) (UniProt P32298). The assay can be described thus: Inhibition of human GRK4 using casein as substrate at 1 uM in presence of 32P-ATP by Hotspot assay relative to control; values are per cent of control.
G protein-coupled receptor kinase 4 (Homo sapiens), sequence (P32298 whole entry, looked up): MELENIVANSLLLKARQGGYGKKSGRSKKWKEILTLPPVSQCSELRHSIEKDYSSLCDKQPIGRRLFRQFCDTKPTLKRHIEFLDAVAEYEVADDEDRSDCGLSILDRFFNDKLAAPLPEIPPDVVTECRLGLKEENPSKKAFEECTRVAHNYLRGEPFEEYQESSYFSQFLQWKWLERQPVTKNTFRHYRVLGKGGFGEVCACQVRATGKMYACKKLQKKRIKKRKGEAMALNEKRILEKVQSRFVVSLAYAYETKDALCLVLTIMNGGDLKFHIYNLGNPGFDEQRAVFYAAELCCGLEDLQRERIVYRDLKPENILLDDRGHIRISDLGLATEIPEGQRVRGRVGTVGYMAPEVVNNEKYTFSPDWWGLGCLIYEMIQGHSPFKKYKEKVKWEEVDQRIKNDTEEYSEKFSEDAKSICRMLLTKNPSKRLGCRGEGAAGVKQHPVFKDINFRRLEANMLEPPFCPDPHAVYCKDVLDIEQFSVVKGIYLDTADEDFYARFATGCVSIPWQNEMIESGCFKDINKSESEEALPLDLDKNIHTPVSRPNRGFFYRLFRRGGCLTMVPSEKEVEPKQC
Assay [3] addresses G protein-coupled receptor kinase 6 (Homo sapiens) (UniProt P43250). The assay can be described thus: Inhibition of human GRK6 using casein as substrate at 1 uM in presence of 32P-ATP by Hotspot assay relative to control; values are per cent of control.
Assay [4] addresses T2, Serine/threonine-protein kinase A-Raf (Homo sapiens) (UniProt P10398).
T2 sequence (whole entry): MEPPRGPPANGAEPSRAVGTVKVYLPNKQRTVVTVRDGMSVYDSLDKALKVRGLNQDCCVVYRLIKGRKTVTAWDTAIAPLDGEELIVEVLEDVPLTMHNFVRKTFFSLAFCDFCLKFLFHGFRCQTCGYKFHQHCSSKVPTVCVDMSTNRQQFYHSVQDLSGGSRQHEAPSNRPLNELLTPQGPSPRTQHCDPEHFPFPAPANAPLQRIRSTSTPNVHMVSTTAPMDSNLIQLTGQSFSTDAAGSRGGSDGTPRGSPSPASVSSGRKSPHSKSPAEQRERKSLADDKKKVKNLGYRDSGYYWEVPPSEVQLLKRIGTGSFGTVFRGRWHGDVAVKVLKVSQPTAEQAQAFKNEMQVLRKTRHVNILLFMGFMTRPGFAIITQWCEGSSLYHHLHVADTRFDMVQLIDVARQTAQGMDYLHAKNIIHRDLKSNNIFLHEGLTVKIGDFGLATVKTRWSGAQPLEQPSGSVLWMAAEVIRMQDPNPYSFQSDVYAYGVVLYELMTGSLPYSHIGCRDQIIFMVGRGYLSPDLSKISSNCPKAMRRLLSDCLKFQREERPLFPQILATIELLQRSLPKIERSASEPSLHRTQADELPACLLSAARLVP
The assay can be described thus: Inhibition of human ARAF using MEK1 (K97R) as substrate at 1 uM in presence of 32P-ATP by Hotspot assay relative to control; values are per cent of control.

The target of assay [5] is Casein kinase I isoform gamma-2 (Homo sapiens) (UniProt P78368). The assay can be described thus: Inhibition of human CK1g2 using KRRRAL[pS]VASLPGL as substrate at 1 uM in presence of 32P-ATP by Hotspot assay relative to control; values are per cent of control.
Casein kinase I isoform gamma-2 (Homo sapiens), sequence (P78368 whole entry, looked up, canonical isoform): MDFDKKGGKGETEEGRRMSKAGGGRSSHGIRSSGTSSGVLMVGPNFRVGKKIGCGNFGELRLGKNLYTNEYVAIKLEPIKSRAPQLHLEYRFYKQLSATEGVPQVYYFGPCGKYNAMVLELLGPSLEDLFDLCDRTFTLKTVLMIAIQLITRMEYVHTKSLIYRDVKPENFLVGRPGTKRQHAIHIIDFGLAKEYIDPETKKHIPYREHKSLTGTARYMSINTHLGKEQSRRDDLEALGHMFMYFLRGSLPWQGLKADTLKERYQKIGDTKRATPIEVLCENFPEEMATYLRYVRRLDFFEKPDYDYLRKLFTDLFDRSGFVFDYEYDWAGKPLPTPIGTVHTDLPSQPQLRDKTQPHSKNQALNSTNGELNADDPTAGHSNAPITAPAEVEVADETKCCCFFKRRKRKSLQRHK
The target in assay [6] is T3, Tyrosine-protein kinase Tec (Homo sapiens) (UniProt P42680).
T3 sequence (whole entry): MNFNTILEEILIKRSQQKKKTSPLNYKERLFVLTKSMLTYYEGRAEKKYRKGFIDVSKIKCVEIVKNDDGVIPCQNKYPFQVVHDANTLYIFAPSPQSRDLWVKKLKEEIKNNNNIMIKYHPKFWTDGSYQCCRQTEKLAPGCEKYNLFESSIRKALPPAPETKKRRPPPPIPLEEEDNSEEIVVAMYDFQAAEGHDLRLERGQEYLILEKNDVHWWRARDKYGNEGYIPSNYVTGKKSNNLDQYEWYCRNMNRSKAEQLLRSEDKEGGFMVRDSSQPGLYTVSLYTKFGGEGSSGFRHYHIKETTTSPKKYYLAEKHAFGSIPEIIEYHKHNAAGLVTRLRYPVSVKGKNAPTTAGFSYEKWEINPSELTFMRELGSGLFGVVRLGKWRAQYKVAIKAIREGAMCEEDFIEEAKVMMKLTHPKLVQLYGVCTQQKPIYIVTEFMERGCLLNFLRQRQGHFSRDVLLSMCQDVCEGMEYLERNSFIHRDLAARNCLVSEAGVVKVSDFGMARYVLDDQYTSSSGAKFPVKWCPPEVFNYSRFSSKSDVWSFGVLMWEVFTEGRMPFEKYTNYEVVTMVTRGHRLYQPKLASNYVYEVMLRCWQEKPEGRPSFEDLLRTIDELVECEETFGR
Briefly: Inhibition of human TEC using poly[Glu:Tyr] (4:1) as substrate at 1 uM in presence of 32P-ATP by Hotspot assay relative to control; values are per cent of control.

Assay [7] deals with Ephrin type-A receptor 2 (Homo sapiens) (UniProt P29317). The assay can be described thus: Inhibition of human EPHA2 using poly[Glu:Tyr] (4:1) as substrate at 1 uM in presence of 32P-ATP by Hotspot assay relative to control; values are per cent of control.
Ephrin type-A receptor 2 (Homo sapiens), sequence (P29317 whole entry): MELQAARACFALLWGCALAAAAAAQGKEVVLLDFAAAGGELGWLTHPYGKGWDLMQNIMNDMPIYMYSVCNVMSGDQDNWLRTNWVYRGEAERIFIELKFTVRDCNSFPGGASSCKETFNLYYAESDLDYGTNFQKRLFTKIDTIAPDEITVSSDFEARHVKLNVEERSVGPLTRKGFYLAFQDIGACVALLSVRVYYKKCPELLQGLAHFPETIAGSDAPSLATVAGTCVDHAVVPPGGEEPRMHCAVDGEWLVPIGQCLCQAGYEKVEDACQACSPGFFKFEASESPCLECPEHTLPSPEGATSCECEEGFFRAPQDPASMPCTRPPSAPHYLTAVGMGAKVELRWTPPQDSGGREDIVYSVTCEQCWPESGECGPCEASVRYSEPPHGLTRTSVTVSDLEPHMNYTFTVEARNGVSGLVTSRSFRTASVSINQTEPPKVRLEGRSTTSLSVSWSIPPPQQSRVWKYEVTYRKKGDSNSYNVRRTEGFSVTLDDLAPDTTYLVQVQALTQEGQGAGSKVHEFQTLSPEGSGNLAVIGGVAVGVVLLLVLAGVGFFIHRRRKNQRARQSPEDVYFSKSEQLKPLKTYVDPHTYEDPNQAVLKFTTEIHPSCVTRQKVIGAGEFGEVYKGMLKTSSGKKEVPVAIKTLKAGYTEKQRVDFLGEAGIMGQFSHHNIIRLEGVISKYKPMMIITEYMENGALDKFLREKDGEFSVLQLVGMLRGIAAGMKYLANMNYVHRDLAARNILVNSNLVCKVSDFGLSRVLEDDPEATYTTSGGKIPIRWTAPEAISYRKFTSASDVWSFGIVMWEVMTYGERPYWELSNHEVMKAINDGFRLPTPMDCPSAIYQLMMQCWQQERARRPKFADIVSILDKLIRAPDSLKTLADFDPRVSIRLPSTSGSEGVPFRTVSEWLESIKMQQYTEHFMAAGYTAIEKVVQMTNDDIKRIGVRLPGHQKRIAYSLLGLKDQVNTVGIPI
In assay [8] the target is Serine/threonine-protein kinase WNK3 (Homo sapiens) (UniProt Q9BYP7). Briefly: Inhibition of human WNK3 using myelin basic protein as substrate at 1 uM in presence of 32P-ATP by Hotspot assay relative to control; values are per cent of control.
Serine/threonine-protein kinase WNK3 (Homo sapiens), sequence (Q9BYP7 whole entry): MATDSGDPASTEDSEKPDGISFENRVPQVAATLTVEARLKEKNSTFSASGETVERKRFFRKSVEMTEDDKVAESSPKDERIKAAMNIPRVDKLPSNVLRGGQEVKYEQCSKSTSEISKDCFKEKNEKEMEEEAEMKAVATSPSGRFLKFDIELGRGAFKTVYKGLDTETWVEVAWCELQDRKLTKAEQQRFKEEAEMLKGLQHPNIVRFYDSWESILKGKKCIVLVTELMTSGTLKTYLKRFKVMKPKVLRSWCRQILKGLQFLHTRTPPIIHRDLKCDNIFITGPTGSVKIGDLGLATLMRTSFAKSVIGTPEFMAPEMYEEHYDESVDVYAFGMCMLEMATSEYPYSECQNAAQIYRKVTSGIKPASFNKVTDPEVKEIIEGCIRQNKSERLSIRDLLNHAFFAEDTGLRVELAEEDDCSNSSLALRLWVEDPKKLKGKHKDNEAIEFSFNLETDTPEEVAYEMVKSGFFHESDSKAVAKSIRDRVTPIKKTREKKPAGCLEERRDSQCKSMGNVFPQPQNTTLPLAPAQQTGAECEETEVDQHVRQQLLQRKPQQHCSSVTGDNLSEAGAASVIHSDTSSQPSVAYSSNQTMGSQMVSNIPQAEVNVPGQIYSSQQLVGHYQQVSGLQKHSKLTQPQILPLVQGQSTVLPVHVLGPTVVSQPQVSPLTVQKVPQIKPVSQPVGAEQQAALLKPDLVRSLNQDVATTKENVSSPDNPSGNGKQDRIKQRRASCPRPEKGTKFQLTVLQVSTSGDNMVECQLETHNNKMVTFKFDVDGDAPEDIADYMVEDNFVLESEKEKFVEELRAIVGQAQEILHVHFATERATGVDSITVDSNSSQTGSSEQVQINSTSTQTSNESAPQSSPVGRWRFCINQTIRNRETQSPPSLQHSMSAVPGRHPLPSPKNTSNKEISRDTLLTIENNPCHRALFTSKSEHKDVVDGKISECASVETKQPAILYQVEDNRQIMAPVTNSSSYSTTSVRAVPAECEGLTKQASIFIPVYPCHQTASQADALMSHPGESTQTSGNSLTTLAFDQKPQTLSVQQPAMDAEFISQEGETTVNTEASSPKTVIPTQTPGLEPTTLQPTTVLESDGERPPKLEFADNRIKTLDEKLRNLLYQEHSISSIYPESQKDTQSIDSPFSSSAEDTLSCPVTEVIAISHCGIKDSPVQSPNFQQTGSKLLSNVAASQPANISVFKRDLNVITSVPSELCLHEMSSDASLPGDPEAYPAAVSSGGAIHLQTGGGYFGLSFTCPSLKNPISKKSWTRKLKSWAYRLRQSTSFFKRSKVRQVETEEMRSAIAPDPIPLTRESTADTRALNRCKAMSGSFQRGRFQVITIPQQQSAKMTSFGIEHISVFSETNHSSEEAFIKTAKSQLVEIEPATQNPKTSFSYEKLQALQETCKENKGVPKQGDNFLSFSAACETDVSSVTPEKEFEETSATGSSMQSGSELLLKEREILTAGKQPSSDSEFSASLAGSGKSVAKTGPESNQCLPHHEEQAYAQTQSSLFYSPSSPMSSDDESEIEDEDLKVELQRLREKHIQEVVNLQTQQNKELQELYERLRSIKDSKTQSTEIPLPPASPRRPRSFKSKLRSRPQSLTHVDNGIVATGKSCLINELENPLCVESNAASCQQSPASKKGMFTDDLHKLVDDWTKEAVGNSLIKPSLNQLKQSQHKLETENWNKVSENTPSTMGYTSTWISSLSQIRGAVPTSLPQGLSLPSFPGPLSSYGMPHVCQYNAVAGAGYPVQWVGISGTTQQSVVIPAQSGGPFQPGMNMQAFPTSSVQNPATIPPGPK

This passage reports residual activity results from ChEMBL document CHEMBL5649166, “RIP3 induces apoptosis independent of pronecrotic kinase activity” (Mol Cell, 2014).

G protein-coupled receptor kinase 6 (Homo sapiens), sequence (P43250 whole entry, looked up): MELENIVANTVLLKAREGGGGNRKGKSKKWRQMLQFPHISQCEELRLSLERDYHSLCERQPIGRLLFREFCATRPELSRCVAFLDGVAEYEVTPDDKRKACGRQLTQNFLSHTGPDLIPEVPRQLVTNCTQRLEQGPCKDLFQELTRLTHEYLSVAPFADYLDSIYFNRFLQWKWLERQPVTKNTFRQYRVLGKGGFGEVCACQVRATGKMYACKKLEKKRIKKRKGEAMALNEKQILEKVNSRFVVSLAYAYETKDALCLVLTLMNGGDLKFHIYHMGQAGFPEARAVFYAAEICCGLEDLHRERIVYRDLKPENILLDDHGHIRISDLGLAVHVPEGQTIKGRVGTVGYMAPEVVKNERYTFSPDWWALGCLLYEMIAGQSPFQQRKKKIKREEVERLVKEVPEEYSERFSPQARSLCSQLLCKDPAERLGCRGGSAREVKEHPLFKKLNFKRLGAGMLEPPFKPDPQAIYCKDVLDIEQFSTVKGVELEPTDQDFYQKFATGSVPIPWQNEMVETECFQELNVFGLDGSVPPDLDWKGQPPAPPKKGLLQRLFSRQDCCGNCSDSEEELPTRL

On to `CC(C)S(=O)(=O)c1ccc2nccc(Nc3ccc4scnc4c3)c2c1`, for which the residual activity in assay [1] came out at 98.9%; in assay [2], 100%; in assay [3] it was 101%; in assay [4], 45.7%; in assay [5], 100%; in assay [6], 99.8%. Besides, the residual activity in assay [7] was 80.1%; in assay [8], 104%.
As to `CNC(=O)c1ccc2c(c1)ncn2-c1ccc(CC(=O)OC(C)(C)C)cc1`, the residual activity in assay [1] was determined as 99.5%; in assay [2], 94.6%; in assay [3], 96.4%; in assay [4] it was 93.2%; in assay [5], 91.8%; in assay [6], 93.1%. The residual activity in assay [7] came out at 97.3%; in assay [8] it was 99.9%.
`Cc1cc(-c2cnc(N)c3c(-c4ccc5scnc5c4)csc23)n(C)n1`: the residual activity turned out to be 51.6% in assay [1]; 97.2% in assay [2]; 91.9% in assay [3]; 65.3% in assay [4]; 79.1% in assay [5]; 89.7% in assay [6]. In addition, the residual activity in assay [7] worked out at 74.3%; in assay [8] it was 83%.
